Entries after “also recorded” stand apart in the source; their conditions may differ.
System: mice with gallstones formed due to a high-cholesterol diet
Test: Treatment of cholesterol gallstones in mice with gallstones formed by a high-cholesterol (lithogenic) diet, 12 weeks of drug administration
Assay type: in vivo, C57BL/6J male mice
Protocol: An overall schematic diagram of the animal experiment is as illustrated in FIG. 1. This will be described below in more detail. C57BL/6J male mice were purchased from Central Lab. Animal Inc. The mice were allowed to have a 4-week compliance period under a condition of controlled light (a cycle of 12-hour light and 12-hour darkness in which darkness is from 6:30 pm to 6:30 am), temperature (22±4° C.), and humidity (50%±20%). The mice had ad libitum access to water (autoclaved distilled water) and were fed commercial feed (Scientific Animal Food & Engineering/+40RMM) containing 2.9% fat, 15.2% protein, and 60.7% carbohydrate. In addition, a lithogenic diet (DYET #102136; Dyets, Inc., Bethlehem, Pa., USA) containing cholesterol (10 g/kg) and cholic acid (5 g/kg) was given for 8 weeks, so that mice with gallstones formed due to a high-cholesterol diet were created.
The mice with gallstones formed due to a high-cholesterol diet were divided into the following groups and experiments were conducted for 12 weeks:
Each of the mice of the control group (1) was administered, using a sonde, 0.3 ml of a mixture of 0.75% Tween 80 and distilled water. The mice of the groups (2) to (4) were administered, using a sonde, a product obtained by diluting 12.5 mg/kg/day of UDCA and 51 mg/kg/day of omega-3 fatty acid in 0.75% Tween 80. […]
After 12 weeks of drug administration, animals were sacrificed and gallbladder tissue was obtained. […] After the high-cholesterol diet, body weight and liver weight were measured; and after the normal diet and therapeutic agent administration, body weight and liver weight were measured (FIG. 2). […]
The size of gall stones in the gallbladder tissue obtained in Example 1 was analyzed on the basis of FIG. 4 (FIGS. 5 and 6). […]
Changes in the weight of liver gallstones after the high-cholesterol diet (base) and after the therapeutic agent administration were analyzed (FIGS. 7 and 8).

[1] = Example 2, anatomical changes before and after 12 weeks of drug administration, normal diet

C[C@H](CCC(=O)O)[C@H]1CC[C@H]2[C@@H]3[C@@H](O)C[C@@H]4C[C@H](O)CC[C@]4(C)[C@H]3CC[C@]12C [UDCA, 3α,7β-dihydroxy-5β-cholanoic acid]
amount of gallstones after administration (FIG. 3) [1]: insignificantly decreased | size of gallstones after administration (FIG. 3) [1]: slightly decreased; also recorded: insignificant changes | size of gallstones, analysed on the classification chart of FIG. 4 (FIGS. 5 and 6) (Example 3, after high-cholesterol diet vs after therapeutic agent administration): no change in size

Reference: US20200376003A1, “PHARMACEUTICAL COMPOSITION FOR PREVENTING OR TREATING CHOLESTEROL GALLSTONE COMPRISING URSODEOXYCHOLIC ACID (UDCA) AND OMEGA-3 FATTY ACID, AND PROCESS FOR PRODUCING THE SAME” (INDUSTRY-ACADEMIC COOPERATION FOUNDATION, YONSEI UNIVERSITY, priority 2019, published 2020)
